Experimental data published in patent US8022268B2, “Transgenic animal model for alzheimer's disease” (The University of Zurich, priority 2007, dated 2011).

Assays:
[1] = system: arcAβ mice; experiment: fMRI vascular reactivity to acetazolamide (cerebral blood volume) after passive immunization; type: in vivo; conditions: transgenic (tg) arcAβ mice after 2 months antibody treatment
Description: (§1) 24 month old arcAβ mice were injected weekly i.p. with recombinant human NI-101.10 or Humira control antibody (3 mg/kg body weight) over a time period of 2 months (8 injections). The allocation of mice to the individual groups was: n=[…] and 4 wt for the NI-101.10 treatment groups; n=[…] and 6 wt for the control antibody treatment groups.
ArcAβ mice and their wildtype littermates were measured before (n=3 tg and 3 wt) or after the antibody treatment (n=5 tg NI-101.10, 4 tg Humira, […], 6 wt Humira). Mice were anesthetized with Isofluran, intubated and artificially ventilated during the MR experiment. The mice were placed on a water-heated cradle and all agents were injected via cannula into the tail vein. Experiments were performed on a 4.7 Tesla Pharmascan 47/16 (Bruker BioSpin GmbH, Germany). Scan parameters of the RARE sequence (Hennig et al., Magn. Reson. Med. 3 (1986), 823-833) were set as followed: spatial resolution: 156×156×700 μm^3, temporal resolution: 40 s, repetition time: 2500 ms, echo time (eff. TE): 80.2 ms, field of view (FOV): 2×1.3 cm^2, RARE factor: 32, matrix dimension: 128×128, slice thickness: 0.7 mm, inter-slice distance: 1.2 mm, number of averages: 4, number of slices: 5. fMRI measurement comprised 3 phases: 8 baseline images (S pre) were acquired as reference for the determination of the relative cerebral blood volume (CBVrel) changes. […]

[2] = system: brain β-amyloid plaques; experiment: Blood brain barrier penetration and binding to Aβ deposits after peripheral administration (double staining with 6E10 and anti-human IgG); type: in vivo; conditions: 24 month arcAβ mice, 3 mg/kg i.p. weekly for 2 months; 6E10 and anti-human IgG double staining
Description: ArcAβ mice were generated as described in the previous Examples on a hybrid background of C57B1/6 and DBA2. The test group was backcrossed once to C57B1/6. Mice were kept under standard housing conditions on a reversed 12 h:12 h light/dark cycle and had free access to food and water. The treatment groups were balanced for age and gender.
Recombinant human anti-Aβ antibody NI-101.10 was produced in stably transfected 293 HEK cells and purified using standard Protein A column purification. Control antibody Humira (Adalimumab, Abbott, Switzerland) was dissolved in medium conditioned by 293 HEK cells and purified as described.
as §1
Mice were anesthetized (10 ul/g bw ketamin/xylaxine) and perfused transcardially with PBS. One brain hemisphere was dissected into cortex, hippocampus and cerebellum and immediately frozen on dry-ice for further biochemical analysis. The other hemisphere was fixed in 4% paraformaldehyde and embedded in paraffin. 5 μm sagittal sections were cut with a Leica RM 2135 microtome (Bannockburn, Ill.). […]

binding of human antibody to Aβ deposits in brain sections [2]: No such binding
Substance: Adalimumab [Humira]
mean ACBV % (integrated, after acetazolamide 30 mg/kg) [1]: 500%
